≈ marks a conversion by molar mass, not a printed value. Calls of active or inactive are those of the source. The rule behind the calls is not given here.
Experiments:
Assay type in all cases: functional
[1] = tested on: Escherichia coli; test: Antimicrobial activity against Escherichia coli after 24 hrs
[2] = tested on: Pseudomonas aeruginosa; test: Antimicrobial activity against Pseudomonas aeruginosa after 24 hrs
[3] = tested on: Klebsiella aerogenes; test: Antimicrobial activity against Enterobacter aerogenes after 24 hrs
[4] = tested on: Staphylococcus aureus; test: Antimicrobial activity against Staphylococcus aureus after 24 hrs
[5] = tested on: Enterococcus faecalis; test: Antimicrobial activity against Enterococcus faecalis after 24 hrs
[6] = tested on: Priestia megaterium; test: Antimicrobial activity against Bacillus megaterium after 24 hrs

C[C@H](CCC(=O)N/N=C/c1ccc(F)cc1)[C@H]1CC[C@H]2[C@@H]3[C@H](O)C[C@@H]4C[C@H](O)CC[C@]4(C)[C@H]3C[C@H](O)[C@]12C
MIC [1]: inactive
MIC [2]: inactive
MIC [3]: inactive
MIC [4]: 31.2 µg/mL (≈ 59.1 µM)
MIC [5]: 62.5 µg/mL (≈ 118 µM)
MIC [6]: 31.2 µg/mL (≈ 59.1 µM)

C[C@H](CCC(=O)N/N=C/c1ccc(C#N)cc1)[C@H]1CC[C@H]2[C@@H]3[C@H](O)C[C@@H]4C[C@H](O)CC[C@]4(C)[C@H]3C[C@H](O)[C@]12C
MIC [1]: 7.81 µg/mL (≈ 14.6 µM)
MIC [2]: inactive
MIC [3]: inactive
MIC [4]: 31.2 µg/mL (≈ 58.3 µM)
MIC [5]: 15.6 µg/mL (≈ 29.2 µM)
MIC [6]: 31.2 µg/mL (≈ 58.3 µM)

COc1ccc2[nH]cc(/C=N/NC(=O)CC[C@@H](C)[C@H]3CC[C@H]4[C@@H]5[C@H](O)C[C@@H]6C[C@H](O)CC[C@]6(C)[C@H]5C[C@H](O)[C@]34C)c2c1
MIC [1]: inactive
MIC [2]: inactive
MIC [3]: inactive
MIC [4]: inactive
MIC [5]: 31.2 µg/mL (≈ 53.9 µM)
MIC [6]: inactive

C[C@H](CCC(=O)N/N=C/c1ccc([N+](=O)[O-])cc1)[C@H]1CC[C@H]2[C@@H]3[C@H](O)C[C@@H]4C[C@H](O)CC[C@]4(C)[C@H]3C[C@H](O)[C@]12C
MIC [1]: 7.81 µg/mL (≈ 14.1 µM)
MIC [2]: inactive
MIC [3]: inactive
MIC [4]: 31.2 µg/mL (≈ 56.2 µM)
MIC [5]: 7.82 µg/mL (≈ 14.1 µM)
MIC [6]: 31.2 µg/mL (≈ 56.2 µM)

C[C@H](CCC(=O)N/N=C/c1ccccn1)[C@H]1CC[C@H]2[C@@H]3[C@H](O)C[C@@H]4C[C@H](O)CC[C@]4(C)[C@H]3C[C@H](O)[C@]12C
MIC [1]: 7.81 µg/mL (≈ 15.3 µM)
MIC [2]: inactive
MIC [3]: inactive
MIC [4]: inactive
MIC [5]: inactive
MIC [6]: 31.2 µg/mL (≈ 61.1 µM)

C[C@H](CCC(=O)N/N=C/c1ccccc1O)[C@H]1CC[C@H]2[C@@H]3[C@H](O)C[C@@H]4C[C@H](O)CC[C@]4(C)[C@H]3C[C@H](O)[C@]12C
MIC [1]: inactive
MIC [2]: inactive
MIC [3]: inactive
MIC [4]: 31.2 µg/mL (≈ 59.3 µM)
MIC [5]: 7.82 µg/mL (≈ 14.8 µM)
MIC [6]: 31.2 µg/mL (≈ 59.3 µM)

C[C@H](CCC(=O)O)[C@H]1CC[C@H]2[C@@H]3[C@H](O)C[C@@H]4C[C@H](O)CC[C@]4(C)[C@H]3C[C@H](O)[C@]12C [CHOLIC ACID]
MIC [1]: 7.81 µg/mL (≈ 19.1 µM)
MIC [2]: 15.6 µg/mL (≈ 38.3 µM)
MIC [3]: inactive
MIC [4]: inactive
MIC [5]: 31.2 µg/mL (≈ 76.5 µM)
MIC [6]: inactive

C[C@H](CCC(=O)N/N=C/c1cc2ccccc2[nH]1)[C@H]1CC[C@H]2[C@@H]3[C@H](O)C[C@@H]4C[C@H](O)CC[C@]4(C)[C@H]3C[C@H](O)[C@]12C
MIC [1]: inactive
MIC [2]: inactive
MIC [3]: inactive
MIC [4]: 31.2 µg/mL (≈ 56.8 µM)
MIC [5]: 3.91 µg/mL (≈ 7.11 µM)
MIC [6]: 15.6 µg/mL (≈ 28.4 µM)

C[C@H](CCC(=O)N/N=C/c1ccccc1Br)[C@H]1CC[C@H]2[C@@H]3[C@H](O)C[C@@H]4C[C@H](O)CC[C@]4(C)[C@H]3C[C@H](O)[C@]12C
MIC [1]: 7.81 µg/mL (≈ 13.2 µM)
MIC [2]: inactive
MIC [3]: inactive
MIC [4]: inactive
MIC [5]: 1.96 µg/mL (≈ 3.32 µM)
MIC [6]: 31.2 µg/mL (≈ 53 µM)

COc1ccc(/C=N/NC(=O)CC[C@@H](C)[C@H]2CC[C@H]3[C@@H]4[C@H](O)C[C@@H]5C[C@H](O)CC[C@]5(C)[C@H]4C[C@H](O)[C@]23C)cc1
MIC [1]: 7.81 µg/mL (≈ 14.4 µM)
MIC [2]: inactive
MIC [3]: inactive
MIC [4]: 62.5 µg/mL (≈ 116 µM)
MIC [5]: 15.6 µg/mL (≈ 28.9 µM)
MIC [6]: 31.2 µg/mL (≈ 57.8 µM)

C[C@H](CCC(=O)N/N=C/c1ccc(Br)cc1)[C@H]1CC[C@H]2[C@@H]3[C@H](O)C[C@@H]4C[C@H](O)CC[C@]4(C)[C@H]3C[C@H](O)[C@]12C
MIC [1]: 3.91 µg/mL (≈ 6.63 µM)
MIC [2]: inactive
MIC [3]: inactive
MIC [4]: 62.5 µg/mL (≈ 106 µM)
MIC [5]: 3.91 µg/mL (≈ 6.63 µM)
MIC [6]: 7.82 µg/mL (≈ 13.3 µM)

C[C@H](CCC(=O)N/N=C/c1cccs1)[C@H]1CC[C@H]2[C@@H]3[C@H](O)C[C@@H]4C[C@H](O)CC[C@]4(C)[C@H]3C[C@H](O)[C@]12C
MIC [1]: inactive
MIC [2]: inactive
MIC [3]: inactive
MIC [4]: 62.5 µg/mL (≈ 121 µM)
MIC [5]: 31.2 µg/mL (≈ 60.5 µM)
MIC [6]: 15.6 µg/mL (≈ 30.2 µM)

COc1ccc(OC)c(/C=N/NC(=O)CC[C@@H](C)[C@H]2CC[C@H]3[C@@H]4[C@H](O)C[C@@H]5C[C@H](O)CC[C@]5(C)[C@H]4C[C@H](O)[C@]23C)c1
MIC [1]: inactive
MIC [2]: inactive
MIC [3]: inactive
MIC [4]: inactive
MIC [5]: 15.6 µg/mL (≈ 27.4 µM)
MIC [6]: 31.2 µg/mL (≈ 54.8 µM)

C[C@H](CCC(=O)N/N=C/c1ccc(Cl)cc1)[C@H]1CC[C@H]2[C@@H]3[C@H](O)C[C@@H]4C[C@H](O)CC[C@]4(C)[C@H]3C[C@H](O)[C@]12C
MIC [1]: 3.91 µg/mL (≈ 7.17 µM)
MIC [2]: inactive
MIC [3]: inactive
MIC [4]: 62.5 µg/mL (≈ 115 µM)
MIC [5]: 1.96 µg/mL (≈ 3.6 µM)
MIC [6]: 31.2 µg/mL (≈ 57.3 µM)

COc1cccc(/C=N/NC(=O)CC[C@@H](C)[C@H]2CC[C@H]3[C@@H]4[C@H](O)C[C@@H]5C[C@H](O)CC[C@]5(C)[C@H]4C[C@H](O)[C@]23C)c1OC
MIC [1]: 3.91 µg/mL (≈ 6.85 µM)
MIC [2]: inactive
MIC [3]: inactive
MIC [4]: inactive
MIC [5]: 15.6 µg/mL (≈ 27.4 µM)
MIC [6]: 31.2 µg/mL (≈ 54.8 µM)

C[C@H](CCC(=O)N/N=C/c1ccc[nH]1)[C@H]1CC[C@H]2[C@@H]3[C@H](O)C[C@@H]4C[C@H](O)CC[C@]4(C)[C@H]3C[C@H](O)[C@]12C
MIC [1]: inactive
MIC [2]: inactive
MIC [3]: inactive
MIC [4]: inactive
MIC [5]: inactive
MIC [6]: 31.2 µg/mL (≈ 62.5 µM)

C=CC1=C(C(=O)O)N2C(=O)[C@@H](NC(=O)/C(=N\OCC(=O)O)c3csc(N)n3)[C@H]2SC1 [CEFIXIME]
MIC [1]: 1.96 µg/mL (≈ 4.32 µM)
MIC [2]: 19.5 µg/mL (≈ 43.1 µM)
MIC [3]: 31.2 µg/mL (≈ 68.9 µM)
MIC [4]: 31.2 µg/mL (≈ 68.9 µM)
MIC [5]: 31.2 µg/mL (≈ 68.9 µM)
MIC [6]: inactive

Cc1ccc(/C=N/NC(=O)CC[C@@H](C)[C@H]2CC[C@H]3[C@@H]4[C@H](O)C[C@@H]5C[C@H](O)CC[C@]5(C)[C@H]4C[C@H](O)[C@]23C)cc1
MIC [1]: 7.81 µg/mL (≈ 14.9 µM)
MIC [2]: inactive
MIC [3]: inactive
MIC [4]: 31.2 µg/mL (≈ 59.6 µM)
MIC [5]: 7.82 µg/mL (≈ 14.9 µM)
MIC [6]: inactive

C[C@H](CCC(=O)N/N=C/c1ccc(Cl)c([N+](=O)[O-])c1)[C@H]1CC[C@H]2[C@@H]3[C@H](O)C[C@@H]4C[C@H](O)CC[C@]4(C)[C@H]3C[C@H](O)[C@]12C
MIC [1]: 7.81 µg/mL (≈ 13.2 µM)
MIC [2]: inactive
MIC [3]: inactive
MIC [4]: 31.2 µg/mL (≈ 53 µM)
MIC [5]: 3.91 µg/mL (≈ 6.63 µM)
MIC [6]: 31.2 µg/mL (≈ 53 µM)

C[C@H](CCC(=O)N/N=C/c1cccc(Cl)c1)[C@H]1CC[C@H]2[C@@H]3[C@H](O)C[C@@H]4C[C@H](O)CC[C@]4(C)[C@H]3C[C@H](O)[C@]12C
MIC [1]: 3.91 µg/mL (≈ 7.17 µM)
MIC [2]: inactive
MIC [3]: inactive
MIC [4]: 31.2 µg/mL (≈ 57.3 µM)
MIC [5]: 1.96 µg/mL (≈ 3.6 µM)
MIC [6]: 31.2 µg/mL (≈ 57.3 µM)

C[C@H](CCC(=O)NN)[C@H]1CC[C@H]2[C@@H]3[C@H](O)C[C@@H]4C[C@H](O)CC[C@]4(C)[C@H]3C[C@H](O)[C@]12C [CHOLYLHYDRAZIDE]
MIC [1]: inactive
MIC [2]: inactive
MIC [3]: inactive
MIC [4]: inactive
MIC [5]: 31.2 µg/mL (≈ 73.9 µM)
MIC [6]: 31.2 µg/mL (≈ 73.9 µM)

C[C@H](CCC(=O)N/N=C/c1ccccc1)[C@H]1CC[C@H]2[C@@H]3[C@H](O)C[C@@H]4C[C@H](O)CC[C@]4(C)[C@H]3C[C@H](O)[C@]12C
MIC [1]: 3.91 µg/mL (≈ 7.66 µM)
MIC [2]: inactive
MIC [3]: inactive
MIC [4]: 62.5 µg/mL (≈ 122 µM)
MIC [5]: 15.6 µg/mL (≈ 30.6 µM)
MIC [6]: 31.2 µg/mL (≈ 61.2 µM)

C[C@H](CCC(=O)N/N=C/c1ccco1)[C@H]1CC[C@H]2[C@@H]3[C@H](O)C[C@@H]4C[C@H](O)CC[C@]4(C)[C@H]3C[C@H](O)[C@]12C
MIC [1]: inactive
MIC [2]: inactive
MIC [3]: inactive
MIC [4]: inactive
MIC [5]: inactive
MIC [6]: 31.2 µg/mL (≈ 62.4 µM)

N[C@@H](C(=O)N[C@@H]1C(=O)N2C(C(=O)O)=C(Cl)CS[C@H]12)c1ccccc1 [CEFACLOR ANHYDROUS]
MIC [1]: inactive
MIC [2]: inactive
MIC [3]: 7.82 µg/mL (≈ 21.3 µM)
MIC [4]: 31.2 µg/mL (≈ 85 µM)
MIC [5]: 31.2 µg/mL (≈ 85 µM)
MIC [6]: 31.2 µg/mL (≈ 85 µM)

From ChEMBL document CHEMBL1165868, “Synthesis and antimicrobial activity of cholic acid hydrazone analogues” (2010)
